Measured values taken from US8540999B2, “Allergenic proteins and peptides from Japanese cedar pollen” (Merck Patent GmbH, priority 1991, dated 2013).
Ends that are not written are not given here.

Columns and labels:
[1] = Solubility, pH range protocol procedure; type: physicochemical; settings: pH range pH6 to pH8
From the text: (§1) Of the above group of modified peptides, several peptides have been identified as “unique” modified peptides. […] Certain modified peptides are characterized as “unique” due to the difficulties encountered when developing a modified peptide which meets all of the stringent requirements of a “unique” peptide defined herein. In many cases, multiple modifications of a parent peptide are attempted prior to identifying a modified derivitive peptide which meets all the characteristics of a “unique” modified peptide. Unique modified peptides are particularly useful as candidate peptides for formulating injectable multipeptide therapeutic formulations of the invention because “unique” modified peptides are soluble and stable in the same physiologically acceptable pH range as well as elicit the necessary T cell reactivity of a therapeutic peptide of the invention. “Unique” modified peptides of the invention include but are not limited to the following group of modified peptides: CJ1-24.5, CJ1-43.39, CJ1-43.50, CJ1-44.8, and CJ1-44.9 all as shown in FIGS. 20 and 44. Example 21 describes the development and identification of “unique” modified peptides of the invention.
(§2) Additional truncation of two C-terminal residues yielded 44.2 (SEQ ID NO: ). […] Thus, 44.2 (SEQ ID NO: ) was further modified by the addition of charged (hydrophilic residues) to the N-terminus and by replacement of the hydrophobic residue Val with the less hydrophobic residue Ala. […] CJI-44.8 (SEQ ID NO: 132) was stable and soluble at greater than 5 mg/ml over the pH range pH6-pH8 in an aqueous buffer.

[2] = Stability in aqueous buffer; type: physicochemical; settings: pH6 to pH8
From the text: as §1, §2

[3] = tested on: Cry j II reactive T cells; assay: T cell proliferation assay, Cry j II primed T cell lines (Example 19); type: cell-based, human
Protocol: Long term T cell lines were established by stimulation of 2×10^6 PBL/ml in bulk cultures of complete medium (RPMI-1640, 2 mM L-glutamine, 100 U/ml penicillin/streptomycin, 5×10^−5M 2-mercaptoethanol, and 10 mM HEPES supplemented with 5% heat inactivated human AB serum) with 10 μg/ml of partially purified native Cry j II for 7 days at 37° C. in a humidified 5% CO2 incubator to select for Cry j II reactive T cells. This amount of priming antigen was determined to be optimal for the activation of T cells from most Japanese cedar pollen Cry j II allergic patients. Viable cells were purified by LSM centrifugation and cultured in complete medium supplemented with 5 units recombinant human IL-2/ml and 5 units recombinant human IL-4/ml for up to three weeks until the cells no longer responded to lymphokines and were considered “rested”. The ability of the T cells to proliferate to peptides Cry j IIA (SEQ ID NO: 185) and Cry j IIB (SEQ ID NO: 186), recombinant Cry j II (rCry j II) (SEQ ID NO: 134), purified native Cry j II, was then assessed. For assay, 2×10^4 rested cells were restimulated in the presence of 2×10^4 autologous Epstein-Barr virus (EBV)-transformed B cells (prepared as described in Example 6) (gamma-irradiated with 25,000 RADS) with 2-50 ’g/ml of rCry j II (SEQ ID NO: 134), purified native Cry j II, peptides Cry j IIA (SEQ ID NO: 185) and Cry j IIB (SEQ ID NO: 186), positive control (PHA), negative control (Amb a I.1), in a volume of […] complete medium in duplicate or triplicate wells in 96-well round bottom plates for 2-4 days. […] Each well then received 1 μCi tritiated thymidine for 16-20 hours. The counts incorporated were collected onto glass fiber filter mats and processed for liquid scintillation counting. The maximum response in a titration of each peptide is expressed as the stimulation index (S.I.). The S.I. is the counts per minute (CPM) incorporated by cells in response to peptide, divided by the CPM incorporated by cells in medium only. A positivity index may be calculated by multiplying the mean S.I. (indicated above each bar in FIGS. 42 and 43) by the percentage of individuals responding to the peptide (indicated in parentheses above each bar in FIGS. 42 and 43). […]

[4] = tested on: Cry j I reactive T cells; assay: T cell proliferation assay, Cry j I primed T cell lines (Example 6); type: cell-based, human; settings: for T cell reactivity: Example 21 narrative, parent peptides of CJI-44.8; for T cell line response: panel of twenty-five patients, FIG. 14
Protocol: Viable cells were purified by LSM centrifugation and cultured in complete medium supplemented with 5 units recombinant human IL-2/ml and 5 units recombinant human IL-4/ml for up to three weeks until the cells no longer responded to lymphokines and were considered “rested”. The ability of the T cells to proliferate to selected peptides, recombinant Cry j I (rCry j I), purified native Cry j I, or recombinant Amb aI.1 (rAmb aI.1) or a positive control, phyto-hemaglutinin (PHA) was then assessed. For assay, 2×10^4 rested cells were restimulated in the presence of 2×10^4 autologous Epstein-Barr virus (EBV)-transformed B cells (prepared as described below) (gamma-irradiated with 25,000 RADS) with 2-50 μg/ml of selected peptides, Cry j I, purified native Cry j I or rAmb a I.1 or PHA, in a volume of 200 μl complete medium in duplicate or triplicate wells in 96-well round bottom plates for 2-4 days. […] Each well then received 1 μCi tritiated thymidine for 16-20 hours. The counts incorporated were collected onto glass fiber filter mats and processed for liquid scintillation counting. […] The titrations were used to optimize the dose of peptides in T cell assays. The maximum response in a titration of each peptide is expressed as the stimulation index (S.I.). The S.I. is the counts per minute (CPM) incorporated by cells in response to peptide, divided by the CPM incorporated by cells in medium only.
The above procedure was followed with a number of other patients. […] The bars represent the positivity index. Above each bar is the percent of positive responses with an S.I. of at least two to the peptide or protein in the group of patients tested. In parenthesis above each bar are the mean stimulation indices for each peptide or protein for the group of patients tested.
Autologous EBV-transformed cell lines were y-irradiated with 25,000 Rad and used as antigen presenting cells in secondary proliferation assays and secondary bulk stimulations. These EBV-transformed cell lines were made by incubating 5×10^6 PBL with 1 ml of B-59/8 Marmoset cell line (ATCC CRL1612, American Type Culture Collection, Rockville, Md.) conditioned medium in the presence of 1 μg/ml phorbol 12-myristate 13-acetate (PMA) at 37° C. for 60 minutes in 12×75 mm polypropylene round-bottom Falcon snap cap tubes (Becton Dickinson Labware, Lincoln Park, N.J.). These cells were then diluted to 1.25×10^6 cells/ml in RPMI-1640 as described above except supplemented with 10% heat-inactivated fetal bovine serum and cultured in 200 μl aliquots in flat bottom culture plates until visible colonies were detected. They were then transferred to larger wells until the cell lines were established.

[5] = tested on: patients' plasma IgE; assay: Direct binding assay of IgE to Cry j I, Cry j II and recombinant Cry j II (Example 18); design: species or system human
Protocol: Costar assay plates were coated with Cry j I or Cry j II at 2 μg/mL or recombinant Cry j II preparation at 10 μg/mL (approximately 20% pure) in a volume of 50 μL overnight at 4° C. The coating antigens were removed and the wells were blocked with 0.5% gelatin, PVP (polyvinyl pyrolidine) 1 mg/mL in PBS, 200 μL/well for 2 hours at room temperature. The anti-Cry j I monoclonal antibody, 4B11, was serially diluted in PBS-Tween 20 starting at a 1:1000 dilution. The human plasma were serially diluted in PBS-Tween at a starting dilution of 1:2. For this set 23 plasma samples from patients symptomatic for Japanese cedar pollen allergy chosen for IgE binding analysis. The first antibody incubation proceeded overnight at 4° C. Following three washes with PBS-Tween the second antibodies were added (biotinylated goat anti-mouse Ig or goat anti-human IgE both at 1:2000) and incubated for two hours at room temperature at 100 μL/well. After washing 3 times, […]. This solution was removed and streptavidin-HRPO diluted to 1:10,000, was added at 100 μL/well. The color was allowed to develop for 2-5 minutes. The reaction was stopped by the addition of 100 μL/well of 1M phosphoric acid. Plates were read on a Microplate IL310 Autoreader (Biotek Instruments, Winooski, Vt.) with a 450 nm filter. The absorbance levels of duplicate wells were averaged. A positive binding result, indicated by a plus sign is determined to be a reading of two-fold or greater above background (no first antibody) at the second dilution of plasma ([…]).

[6] = aqueous sodium phosphate buffer

KSMKVTVAFNQARK [CJ1-43.50]
solubility ([1]; aqueous buffer): > 5 mg/mL
stability [2]: stable

Cry j IIH: SEQ ID NO: 192, amino acids 386-409 of Cry j II (DSMPCKDIKLSDISLKLTSGKIAS; listed as Cryptomeria japonica)
T cell proliferative response ([3]; 9 patients, FIG. 43): react

DDAYSDDKSMKVTVAFNQFGDE [CJ1-43.39]
solubility [1, 6]: > 5 mg/mL
stability [2]: stable

DEEGAYFVSSGKYEGGNIYTKKEAFNVEDE [CJ1-44.9]
solubility ([1]; aqueous buffer): > 5 mg/mL
stability [2]: stable

CJ1-32: Cry j I peptide, SEQ ID NO: 57 (SSGKYEGGNIYTKKEAFNVE; listed as Cryptomeria japonica)
T cell reactivity [4]: high T-cell reactivity
T cell line response [4]: responded

Cry j IIG: SEQ ID NO: 191, amino acids 152-175 of Cry j II (GKGVIDGQGKQWWAGQCKWVNGRE; listed as Cryptomeria japonica)
T cell proliferative response ([3]; 9 patients, FIG. 43): react

DKEPRARYGLVHVANNNYDPWTIEEE [CJ1-24.5]
solubility [1, 6]: > 5 mg/mL
stability [2]: stable

CJ1-31: Cry j I peptide, SEQ ID NO: 56 (DVFYNGAYFVSSGKYEGGNI; listed as Cryptomeria japonica)
T cell reactivity [4]: high T-cell reactivity
T cell line response [4]: responded

B1: Cry j IIC: recombinant peptide, amino acids 46-163 of Cry j II, SEQ ID NO: 187 (protein, listed as Cryptomeria japonica)
chain: MGHHHHHHEFRKVEHSRHDAINIFNVEKYGAVGDGKHDCTEAFSTAWQAACKNPSAMLLVPGSKKFVVNNLFFNGPCQPHFTFKVDGIIAAYQNPASWKNNRIWLQFAKLTGFTLMGKGVIDGQGKQW
T cell proliferative response ([3]; 9 patients, FIG. 43): react

B2: Cry j IIF: recombinant peptide, amino acids 397-514 of Cry j II, SEQ ID NO: 190 (protein, listed as Cryptomeria japonica)
chain: MGHHHHHHEFISLKLTSGKIASCLNDNANGYFSGHVIPACKNLSPSAKRKESKSHKHPKTVMVENMRAYDKGNRTRILLGSRPPNCTNKCHGCSPCKAKLVIVHRIMPQEYYPQRWICSCHGKIYHP
T cell proliferative response ([3]; 9 patients, FIG. 43): react

B3: Cry j IIE: recombinant peptide, amino acids 281-396 of Cry j II, SEQ ID NO: 189 (protein, listed as Cryptomeria japonica)
chain: MGHHHHHHEFSIGSLGRENSRAEVSYVHVNGAKFIDTQNGLRIKTWQGGSGMASHIIYENVEMINSENPILINQFYCTSASACQNQRSAVQIQDVTYKNIRGTSATAAAIQLKCSDSMPCKDIKLSD
T cell proliferative response ([3]; 9 patients, FIG. 43): react

B4: Cry j IID: recombinant peptide, amino acids 164-280 of Cry j II, SEQ ID NO: 188 (protein, listed as Cryptomeria japonica)
chain: MGHHHHHHEFWAGQCKWVNGREICNDRDRPTAIKFDFSTGLIIQGLKLMNSPEFHLVFGNCEGVKIIGISITAPRDSPNTDGIDIFASKNFHLQKNTIGTGDDCVAIGTGSSNIVIEDLICGPGHGI
T cell proliferative response ([3]; 9 patients, FIG. 43): react

B5: rCry j II: recombinant Cry j II expressed in E. coli with His6 leader (protein, listed as Cryptomeria japonica)
chain: MAMKLIAPMAFLAMQLIIMAAAEDQSAQIMLDSVVEKYLRSNRSLRKVEHSRHDAINIFNVEKYGAVGDGKHDCTEAFSTAWQAACKNPSAMLLVPGSKKFVVNNLFFNGPCQPHFTFKVDGIIAAYQNPASWKNNRIWLQFAKLTGFTLMGKGVIDGQGKQWWAGQCKWVNGREICNDRDRPTAIKFDFSTGLIIQGLKLMNSPEFHLVFGNCEGVKIIGISITAPRDSPNTDGIDIFASKNFHLQKNTIGTGDDCVAIGTGSSNIVIEDLICGPGHGISIGSLGRENSRAEVSYVHVNGAKFIDTQNGLRIKTWQGGSGMASHIIYENVEMINSENPILINQFYCTSASACQNQRSAVQIQDVTYKNIRGTSATAAAIQLKCSDSMPCKDIKLSDISLKLTSGKIASCLNDNANGYFSGHVIPACKNLSPSAKRKESKSHKHPKTVMVENMRAYDKGNRTRILLGSRPPNCTNKCHGCSPCKAKLVIVHRIMPQEYYPQRWICSCHGKIYHP
plasma IgE binding response ([5]; patient #1034): negative
plasma IgE binding response ([5]; patient plasma samples, FIGS. 31-33): further reduction in binding
plasma IgE binding response ([5]; patients #1143 and #1146): clearly positive
T cell proliferative response ([3]; 9 patients, FIG. 43): react
T cell proliferative response ([3]; n=6 patients, FIG. 42): respond well
